Here are results for six compounds from paper PMC5813016 (Nature Communications, 2018).

As usually defined, the Ki is the equilibrium dissociation constant of an inhibitor or competing ligand from its target. Read a high Ki as a looser hold on the target. As a reminder, the IC50 is the concentration needed to halve the response being measured. What is called EC50 is the concentration needed to bring the measured effect to its halfway point.

Assay [1] addresses T1, Human D4R (Homo sapiens, UniProt P21917).
T1 sequence (P21917 1-419): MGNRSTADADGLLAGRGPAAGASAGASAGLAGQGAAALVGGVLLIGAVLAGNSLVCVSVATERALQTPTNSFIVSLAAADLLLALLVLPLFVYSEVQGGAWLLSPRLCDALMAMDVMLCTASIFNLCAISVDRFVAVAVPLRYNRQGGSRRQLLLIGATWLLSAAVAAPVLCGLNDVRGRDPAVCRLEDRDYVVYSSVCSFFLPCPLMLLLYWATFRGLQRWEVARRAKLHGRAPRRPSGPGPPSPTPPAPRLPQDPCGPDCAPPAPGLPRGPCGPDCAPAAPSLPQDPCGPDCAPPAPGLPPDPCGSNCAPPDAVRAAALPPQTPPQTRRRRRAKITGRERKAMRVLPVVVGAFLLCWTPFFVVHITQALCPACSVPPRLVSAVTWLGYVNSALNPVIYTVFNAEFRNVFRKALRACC
In words: Human D4R binding.

The target in assay [2] is T2, Dopamine Transporter (Homo sapiens, UniProt Q01959).
T2 construct: expressed in transfected cells
In words: Amine transporter dye uptake assay, DAT. It is filed as cell-based. The method, then: HBSS/HEPES containing compound (5 µl) was added to the wells of black walled clear bottomed 384-well plate. Transporter dye (25 µl) (Molecular Devices; Cat # R8174) was added to each well. Finally 15,000 cells (20 µl) stably expressing the amine transporter of interest were added to each well and the plate is incubated at 37 °C for 30 min (DAT) or 60 min (NET and SERT). The plate is transferred to the FLIPR Tetra® instrument and the fluorescence of each well was measured (Ex […]). The level of fluorescence measured directly relates to the level of uptake of the dye labelled amine, with a reduction in levels being related to an inhibition of the respective transporter.
(§1) In vitro data analysis: Agonist/antagonist curves were plotted from individual experiments, and EC50/IC50 values were determined using a four parameter logistic fit.

Assay [3] concerns the target T3, Mu Opioid (Homo sapiens, UniProt P35372).
T3 construct: expressed in transfected cells
In words: Beta arrestin enzyme fragment complementation assay, mu opioid. The class given is cell-based. As to conditions: for EC50: read-out: Mu Opioid, Agonist EC50; for IC50: vs EC80 of agonist, read-out: Mu Opioid, Antagonist IC50. The method, then: (§2) Recruitment of β-arrestin to the GPCR, results in a functional enzyme that generates a chemiluminescent signal when substrate is added. Cells were plated at 5000 cells per well (40 µl per well) in black walled clear bottomed 384-well plates 24 h prior to running the assay. Medium was removed from the plates. For agonist studies 15 µl of HBSS/HEPES containing compound was added to the cells and the plate was incubated at room temperature for 90 min. For antagonist studies 15 µl of HBSS/HEPES containing compound was added to the cells and was incubated for 15 min prior to the addition of 15 µl of an EC80 concentration of agonist. The plate was subsequently incubated at room temperature for 90 min. Both assays were terminated by addition of 15 µl of a Beta-Glo® solution (Promega). Following an additional 30 min incubation the luminescence of each well was measured to determine the level of receptor activation.
as §1

Assay [4] addresses T4, Adrenergic Alpha 1a (Homo sapiens, UniProt P35348).
T4 construct: expressed in transfected cells
T4 sequence (P35348 1-466): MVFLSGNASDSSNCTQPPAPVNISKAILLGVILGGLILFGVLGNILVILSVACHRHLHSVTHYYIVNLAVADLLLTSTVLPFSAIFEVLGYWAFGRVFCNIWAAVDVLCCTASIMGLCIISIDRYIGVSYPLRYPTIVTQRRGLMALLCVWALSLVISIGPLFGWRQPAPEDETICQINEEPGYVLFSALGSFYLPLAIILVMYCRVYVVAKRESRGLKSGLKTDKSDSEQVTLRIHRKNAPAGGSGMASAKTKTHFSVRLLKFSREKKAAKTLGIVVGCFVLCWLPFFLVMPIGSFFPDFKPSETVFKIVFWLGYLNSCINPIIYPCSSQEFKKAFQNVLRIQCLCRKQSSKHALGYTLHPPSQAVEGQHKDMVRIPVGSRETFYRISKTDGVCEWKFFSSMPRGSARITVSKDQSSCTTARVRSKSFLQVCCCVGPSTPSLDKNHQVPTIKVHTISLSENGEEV
In words: FLIPR calcium assay, adrenergic alpha1a. It is filed as cell-based. As to conditions: for EC50: read-out: Adrenergic Alpha 1a, Agonist EC50; for IC50: vs EC80 of agonist, read-out: Adrenergic Alpha 1a, Antagonist IC50. The method, then: Activation of the receptor by an agonist in this assay system results in an increase in intracellular calcium levels which is measured using a calcium specific dye. Cells were plated at 7500 cells per well (50 µl per well) in black walled clear bottomed 384-well plates 24 h prior to running the assay. […] Compound solution (10 µl) was added to each well by the FLIPR Tetra® instrument to measure agonist activity of the compound by measuring the change in fluorescence from baseline over a 60 s period (Ex […]). Subsequently 10 µl of agonist (EC80 value) was added to each well by the FLIPR Tetra® instrument to evaluate antagonist activity, with the change in fluorescence from baseline being measured over a 60 s period.
as §1

The target in assay [5] is T5, Cannabinoid 1 (Homo sapiens, UniProt P21554).
T5 construct: expressed in transfected cells
Kind of assay: Beta arrestin enzyme fragment complementation assay, cannabinoid 1. It is filed as cell-based. As to conditions: for EC50: read-out: Cannabinoid 1, Agonist EC50; for IC50: vs EC80 of agonist, read-out: Cannabinoid 1, Antagonist IC50. The method, then: as §2, §1

Assay [6] deals with Human PDE5A1 (Homo sapiens, UniProt O76074). In words: PDE SPA assay, PDE5A1. The class given is biochemical. The method, then:
PDE assays: The PDE assays measures the conversion of 3′, 5′-[^3H] cAMP to 5′-[^3H] AMP (for PDE 3A1 and 4D3) or 3′, 5′-[^3H] cGMP to 5′-[^3H] GMP (for PDE 5A1) by the relevant PDE enzyme subtype. Yttrium silicate (YSi) scintillation proximity (SPA) beads bind selectively to 5′-[^3H] AMP or 5′-[^3H] […] The assay was performed in white walled opaque bottom 384-well plates. One microliter of compound in dimethyl sulfoxide was added to each well. Enzyme solution was then added to each well in buffer (in mM: Trizma, 50 (pH7.5); MgCl2, 1.3 mM). […] The reaction was terminated by the addition of 20 µl of PDE YSi SPA beads (Perkin Elmer). Following an additional 8 h incubation period the plates were read on a MicroBeta radioactive plate counter (Perkin Elmer) to determine radioactive counts per well.
as §1

In assay [7] the test system is human D1R F289A mutant. Kind of assay: cAMP assay, D1R mutant F289A. As to conditions: relative to wild-type D1R; each table line is one experiment (Experiment # 1-6). On the technique in general: Cyclic AMP is a second messenger, typically raised through Gs and lowered through Gi signalling.

Values joined by “and” are separate entries in the source; they are usually repeats but may differ in a detail not shown here. Equal values may be shown once.

T3 sequence (P35372 whole entry): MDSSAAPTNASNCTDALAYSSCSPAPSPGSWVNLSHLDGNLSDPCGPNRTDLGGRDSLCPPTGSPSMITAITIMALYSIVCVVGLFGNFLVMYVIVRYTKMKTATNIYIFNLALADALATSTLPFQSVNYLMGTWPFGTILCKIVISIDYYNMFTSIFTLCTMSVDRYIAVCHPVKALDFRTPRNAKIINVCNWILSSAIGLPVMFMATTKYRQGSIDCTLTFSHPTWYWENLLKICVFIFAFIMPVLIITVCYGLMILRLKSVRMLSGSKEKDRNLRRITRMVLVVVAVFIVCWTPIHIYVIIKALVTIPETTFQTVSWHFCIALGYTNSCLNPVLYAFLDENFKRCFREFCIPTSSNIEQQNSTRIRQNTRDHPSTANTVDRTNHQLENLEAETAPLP
T5 sequence (P21554 whole entry): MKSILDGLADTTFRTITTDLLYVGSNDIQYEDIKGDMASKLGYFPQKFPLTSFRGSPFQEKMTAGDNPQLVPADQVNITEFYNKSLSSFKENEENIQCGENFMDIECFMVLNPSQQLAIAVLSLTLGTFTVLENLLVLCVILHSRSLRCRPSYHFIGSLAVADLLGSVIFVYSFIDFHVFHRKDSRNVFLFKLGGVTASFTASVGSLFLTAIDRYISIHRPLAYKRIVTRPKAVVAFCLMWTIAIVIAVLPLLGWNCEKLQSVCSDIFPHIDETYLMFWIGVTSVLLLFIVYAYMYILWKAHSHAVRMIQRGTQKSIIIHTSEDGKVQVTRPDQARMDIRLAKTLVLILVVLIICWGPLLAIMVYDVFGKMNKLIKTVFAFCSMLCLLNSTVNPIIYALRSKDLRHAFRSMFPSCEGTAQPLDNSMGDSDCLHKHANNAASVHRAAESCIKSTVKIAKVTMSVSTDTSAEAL
T2 sequence (Q01959 whole entry): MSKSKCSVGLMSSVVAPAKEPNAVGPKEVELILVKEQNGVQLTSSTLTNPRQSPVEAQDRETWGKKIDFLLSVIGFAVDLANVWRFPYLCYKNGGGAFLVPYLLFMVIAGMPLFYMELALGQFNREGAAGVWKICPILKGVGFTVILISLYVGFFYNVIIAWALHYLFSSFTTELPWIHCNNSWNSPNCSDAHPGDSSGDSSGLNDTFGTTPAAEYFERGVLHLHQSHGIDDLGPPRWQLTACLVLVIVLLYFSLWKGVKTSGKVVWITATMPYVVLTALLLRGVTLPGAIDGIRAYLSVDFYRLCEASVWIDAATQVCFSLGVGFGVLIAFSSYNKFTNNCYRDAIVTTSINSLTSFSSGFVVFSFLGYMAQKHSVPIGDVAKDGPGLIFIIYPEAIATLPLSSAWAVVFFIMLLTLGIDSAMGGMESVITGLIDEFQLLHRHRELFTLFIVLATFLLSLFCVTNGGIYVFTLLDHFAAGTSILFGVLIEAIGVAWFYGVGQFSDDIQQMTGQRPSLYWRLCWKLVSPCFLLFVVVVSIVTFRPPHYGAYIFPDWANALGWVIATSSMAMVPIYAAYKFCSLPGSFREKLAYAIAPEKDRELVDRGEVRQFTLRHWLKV

The compound `Cc1cc(Oc2nccc3occc23)ccc1-c1c(C)cnnc1C` [PF-1119] gave a Ki in assay [1] above 10 µM. Further, the IC50 was above 10 µM in assay [2]; above 10 µM in assay [3]; above 10 µM in assay [4]; 6.6 µM in assay [5]; above 10 µM in assay [6]. For the same compound, the EC50 in assay [3], in assay [4] and in assay [5] was above 10 µM each time.

For the compound `Cc1cc(Oc2cccc(O)c2O)ccc1-c1c(C)ncnc1C` [PF-1437], in assay [1], the Ki was above 10 µM. The “fold shift of cAMP functional potency, F289A (EC50 mutant/ EC50 WT)” value (“fold shift of cAMP functional potency” for short) in assay [7] is 12.4 and 16.0.

The compound `Cc1n[nH]c(=O)c(C)c1-c1ccc(Oc2nccc3occc23)cc1F` [PF-2334] displayed a Ki in assay [1] above 10 µM.

`Cc1cc(Oc2nccc3occc23)ccc1-c1c(C)ncc2nccn12` [PF-6142]: the “fold shift of cAMP functional potency” value in assay [7] is 32.3 and 44.7. Besides, the IC50 in assay [2] is above 10 µM; in assay [3], 8.68 µM; in assay [4], 9.1 µM; in assay [5], 2.08 µM; in assay [6], above 10 µM. Further, the EC50 in assay [3], in assay [4] and in assay [5] was above 10 µM throughout.

With `Cc1cc(Oc2nccc3occc23)ccc1-n1c(C)nc2cnccc21` [PF-8294], the IC50 in assay [2] is above 10 µM; in assay [3], above 10 µM; in assay [4], above 10 µM; in assay [5], above 8.76 µM; in assay [6], above 10 µM. Besides, the EC50 in assay [3], in assay [4] and in assay [5] was above 10 µM each time.

In assay [1], `Cc1cc(Oc2nccc3occc23)ccc1-c1c(C)ncnc1C` [PF-8871] registered a Ki above 10 µM. Further, the “fold shift of cAMP functional potency” value in assay [7] worked out at 27.9. Further, the IC50 in assay [2], in assay [3], in assay [4], in assay [5] and in assay [6] was above 10 µM in each case. Also, the EC50 in assay [3], in assay [4] and in assay [5] was above 10 µM each time.
